From patent US20180042891A1, “Cancer Cell Apoptosis” (e-Therapeutics plc, priority 2009, published 2018)

Experiments:
[1] = system: 46Br.1G1 fibroblast cells; assay: Caspase 3/7 apoptosis and CellTiter-Blue cell viability assay, 24 hour; assay type: cell-based, human; conditions: 46Br.1G1, 24 hours incubation
Experimental: (§1) Assay was performed at a 24 hour timepoint on 3 melanoma lines (A375, G-361, WM266-4) 2 breast cancer lines (MCF7, MDA-MB-231), fibroblast (46BR.1G1), colon cancer (HCT116), prostate cancer (PC-3), glioblastoma (U373) and non-small cell lung cancer (NSCLC) (DMS-114)
(§2) The above cell lines were maintained in RPMI 1640 culture medium (Sigma, UK) containing 10% (v/v) heat inactivated foetal bovine serum (Sigma, UK) and 2 mM […] at 37° C. in 5% humidified CO2. Cells were harvested, washed, re-suspended into growth medium and counted (Beckman-Coulter Vi-CELL XR). Cells were plated onto the middle 240 wells of 384 tissue culture plates at 1.6×lO^5 to 2.4×lO^5 cells/ml in 12.5 μl/well aliquots. 50 μl of growth media was aliquoted into the outer wells. 2 plates were prepared per cell line. Plates were incubated overnight at 37° C., in 5% humidified CO2.
(§3) Dexanabinol was prepared in growth medium at 2 times the final assay concentration at 125, 31.3, 7.81, 2.00, 0.49, 0.12, 0.031 and O.OO8 μM (DMSO concentration was kept constant across the dilution range at 0.5%).
(§4) Cisplatin was used as a positive control. The final assays concentrations were 10, 2.5, 0.63, 0.156, 0.039, 0.010, 0.002 and 0.0006 μg/ml. […] 12.5 μl of growth media was added to the media control wells. The plates were incubated for 24 hours at 37° C., in 5% humidified CO2.
(§5) Caspase 3/7 levels were assessed by Apo-ONE® Homogeneous Caspase-3/7 assay kit. Fluorescence was measured using a FlexStation® II^384 plate reader at 1, 2, 3 and 4 hours after addition of the caspase substrate. The 4 hour readings were used for analysis.
(§6) The cell viability assay was performed in parallel on the same plate for each line using CellTiter-Blue® (Promega) reagent. Briefly, 25 μl of CellTiter-Blue® (Promega) reagent was added to each well. The plates were shaken for 1 minute at 500 rpm and then incubated at 37° C., 5% CO2 for 4 hours.

[2] = system: WM266-4 melanoma cells; assay: as above; assay type: cell-based, human; conditions: WM266-4, 24 hours incubation
Experimental: as §1, §2, §3, §4, §5, §6

[3] = system: PC-3 prostate cancer cells; assay: as above; assay type: cell-based, human; conditions: PC-3, 24 hours incubation
Experimental: as §1, §2, §3, §4, §5, §6

[4] = system: MDA-MB-231 breast cancer cells; assay: as above; assay type: cell-based, human; conditions: MDA-MB-231, 24 hours incubation
Experimental: as §1, §2, §3, §4, §5, §6

[5] = system: G-361 melanoma cells; assay: as above; assay type: cell-based, human; conditions: G-361, 24 hours incubation
Experimental: as §1, §2, §3, §4, §5, §6

[6] = system: DMS-114 NSCLC cells; assay: as above; assay type: cell-based; conditions: DMS-114, 24 hours incubation
Experimental: as §1, §2, §3, §4, §5, §6

[7] = system: MCF7 breast cancer cells; assay: as above; assay type: cell-based; conditions: MCF7, 24 hours incubation
Experimental: as §1, §2, §3, §4, §5, §6

[8] = system: HCT116 colon cancer cells; assay: as above; assay type: cell-based; conditions: HCT116, 24 hours incubation
Experimental: as §1, §2, §3, §4, §5, §6

[9] = system: U373 glioblastoma cells; assay: as above; assay type: cell-based; conditions: U373, 24 hours incubation
Experimental: as §1, §2, §3, §4, §5, §6

[10] = system: A375 melanoma cells; assay: as above; assay type: cell-based; conditions: A375, 24 hours incubation
Experimental: as §1, §2, §3, §4, §5, §6

[11] = system: panel of cancer cell lines and a human fibroblast line; assay: CellTiter-Blue cell viability (cytotoxicity), whole panel of cell lines; assay type: cell-based
Experimental: as §1, §2, §3
(§7) The final assays concentrations were 10, 2.5, 0.63, 0.156, 0.039, 0.010, 0.002 and 0.0006 μg/ml. […] 12.5 μl of growth media was added to the media control wells. The plates were incubated for 24 hours at 37° C., in 5% humidified CO2.
as §6

[12] = as above; assay type: cell-based; conditions: human; at the highest concentration; read-out: loss in cell viability
Experimental: as §1, §2, §3, §7, §6

[13] = system: Panc-1 cells; set-up: dose or concentration left out as unconfirmed; conditions: at this same concentration; cited from earlier work
[14] = system: Aspc-1; set-up: dose or concentration left out as unconfirmed; conditions: cited from earlier work
[15] = system: melanoma cell lines (A375, Malme-3M, UACC62); conditions: previous studies, WO '700; read-out: decreased growth, IC50 value; cited from earlier work
[16] = biological target: CDK2 (Homo sapiens, UniProt P24941); assay: Direct assay against CDK2; assay type: biochemical; conditions: when directly assayed
[17] = system: panel of cancer cell lines and a human fibroblast line; assay: Apo-ONE Caspase-3/7 apoptosis assay, whole panel of cell lines; assay type: cell-based
Experimental: as §1, §2, §3
Cisplatin was used as a positive control. […]
as §5

[18] = biological target: CDK5 (Homo sapiens, UniProt Q00535); assay: Direct assay against CDK5; assay type: biochemical; conditions: when directly assayed
Chain of CDK5 (Q00535 whole entry, species assumed): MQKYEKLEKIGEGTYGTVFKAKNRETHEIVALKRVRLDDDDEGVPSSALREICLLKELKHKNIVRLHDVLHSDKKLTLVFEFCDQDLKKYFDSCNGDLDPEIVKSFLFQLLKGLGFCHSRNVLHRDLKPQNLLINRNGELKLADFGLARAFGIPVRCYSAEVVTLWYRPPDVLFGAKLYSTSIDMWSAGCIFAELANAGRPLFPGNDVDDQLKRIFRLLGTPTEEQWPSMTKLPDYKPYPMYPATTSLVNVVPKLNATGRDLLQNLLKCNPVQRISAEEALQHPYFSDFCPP
Chain of CDK5 (Q15078 99-307 partner limits assumed, species assumed): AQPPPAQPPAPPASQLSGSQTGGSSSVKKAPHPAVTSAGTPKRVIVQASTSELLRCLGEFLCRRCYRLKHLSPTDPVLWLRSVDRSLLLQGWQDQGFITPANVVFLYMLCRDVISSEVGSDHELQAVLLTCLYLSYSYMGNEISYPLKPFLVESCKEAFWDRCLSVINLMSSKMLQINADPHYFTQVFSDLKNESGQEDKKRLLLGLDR

## N.N.[Cl][Pt][Cl] [Cisplatin, reference compound]
[1]
  IC50: 21.5 µM
  Rank: apoptosis induction and decrease in proliferation: ** (moderate apoptosis induction and decrease in proliferation (35-70%))
[2]
  IC50: 62 µM
  Rank: apoptosis induction and decrease in proliferation: * (weak apoptosis induction and decrease in proliferation (<35%))
[3]
  IC50: ~58 µM
  Rank: apoptosis induction and decrease in proliferation: * (weak apoptosis induction and decrease in proliferation (<35%))
[4]
  IC50: > 33 µM
  Rank: apoptosis induction and decrease in proliferation: * (weak apoptosis induction and decrease in proliferation (<35%))
[5]
  IC50: 18 µM
  Rank: apoptosis induction and decrease in proliferation: ** (moderate apoptosis induction and decrease in proliferation (35-70%))
[6]
  IC50: ~40.2 µM
  Rank: apoptosis induction and decrease in proliferation: * (weak apoptosis induction and decrease in proliferation (<35%))
[7]
  IC50: 40.6 µM
  Rank: apoptosis induction and decrease in proliferation: ** (moderate apoptosis induction and decrease in proliferation (35-70%))
[8]
  IC50: 29.5 µM
  Rank: apoptosis induction and decrease in proliferation: ** (moderate apoptosis induction and decrease in proliferation (35-70%))
[9]
  IC50: > 33 µM
  Rank: apoptosis induction and decrease in proliferation: * (weak apoptosis induction and decrease in proliferation (<35%))
[10]
  IC50: 21.8 µM
  Rank: apoptosis induction and decrease in proliferation: ** (moderate apoptosis induction and decrease in proliferation (35-70%))

## CCCCCCC(C)(C)c1cc(O)c2c(c1)OC(C)(C)[C@H]1CC=C(CO)C[C@H]21 [Dexanabinol, 1, 1 dimethyl heptyl-(3S,4S)-7-hydroxy-Δ^6-tetrahydrocannabinol]
[11]; Homo sapiens, Fibroblast, read-out: cytotoxic response, IC50 values
  IC50: 10 to 25 µM
[11]; all cell lines
  concentration giving dose-dependent decrease in cell viability: > 10^−5 M
[12]
  cytotoxicity at 24 h, 62.5 µM: 100%
[13]
  Panc-1 cells proliferation inhibited: 26%
[1]
  Rank: apoptosis induction and decrease in proliferation: *** (good apoptosis induction and decrease in proliferation (>70%))
[1]; Homo sapiens, Fibroblast
  IC50: 23.1 µM
[2]; Homo sapiens, WM 266-4
  IC50: 20.9 µM
[2]
  Rank: apoptosis induction and decrease in proliferation: ** (moderate apoptosis induction and decrease in proliferation (35-70%))
[3]; Homo sapiens
  IC50: 19.9 µM
[3]
  Rank: apoptosis induction and decrease in proliferation: *** (good apoptosis induction and decrease in proliferation (>70%))
[4]; Homo sapiens
  IC50: 10 to 50 µM
[4]
  Rank: apoptosis induction and decrease in proliferation: ** (moderate apoptosis induction and decrease in proliferation (35-70%))
[5]
  Rank: apoptosis induction and decrease in proliferation: *** (good apoptosis induction and decrease in proliferation (>70%))
[5]; Homo sapiens
  IC50: 11 µM
[14]
  Aspc-1 proliferation: not affected
[15]
  IC50: 10 to 20 µM
[16]
  direct activity against CDK2: no significant direct activity
[17]
  concentrations at which pro-apoptotic effect and effect on cell number were shown: ≥ 10 µM
[17]; dropped at the highest concentration of 10 μM
  concentration of peak response in apoptosis: 2.5 µM
[6]
  Rank: apoptosis induction and decrease in proliferation: * (weak apoptosis induction and decrease in proliferation (<35%))
[6]; Homo sapiens
  IC50: 10 to 50 µM
[7]; Homo sapiens
  IC50: 16.2 µM
[7]
  Rank: apoptosis induction and decrease in proliferation: *** (good apoptosis induction and decrease in proliferation (>70%))
[8]
  Rank: apoptosis induction and decrease in proliferation: *** (good apoptosis induction and decrease in proliferation (>70%))
[8]; Homo sapiens, HCT-116
  IC50: 22.3 µM
[9]; Homo sapiens, U373 MG
  IC50: 10 to 50 µM
[9]
  Rank: apoptosis induction and decrease in proliferation: * (weak apoptosis induction and decrease in proliferation (<35%))
[10]
  Rank: apoptosis induction and decrease in proliferation: ** (moderate apoptosis induction and decrease in proliferation (35-70%))
[10]; Homo sapiens, A-375
  IC50: 19.2 µM
[18]
  direct activity against CDK5: no significant direct activity
